Results: patent publication US11020422B2, “Cyclodextrin for the treatment of lysosomal storage diseases” (The United States of America, as represented by the …, priority 2012, dated 2021)
Like-named read-outs stand apart in the source and are kept apart here.

Tests used:
[1] = test system: Wolman fibroblasts; test: Amplex-Red cholesterol assay in Wolman fibroblasts; assay type: cell-based, human
Procedure: (§1) Amplex-Red Cholesterol Assay—Total cholesterol in patient cells was measured by the Amplex-Red Cholesterol Assay Kit (Invitrogen). The unesterified cholesterol was determined using the same kit without the enzyme […]. Esterified cholesterol was determined as the difference between the total and unesterified cholesterol values. The cells were seeded to black, tissue culture-treated 96-well, 384-well or 1536-well plates at 4000, 1000, 300 cells/well in 100, 20 or 5 μl medium by a Multidrop Combi dispenser (Thermo Scientific, Waltham, Mass.) and cultured for 24 hr. The assay plates were added with compound dilution in DMSO solution using a Pintool station (Klaypsys, San Diego, Calif.) and cultured for 3 days. The cells were washed twice manually for 96-well or 384-well plates or using a centrifugation method in which the inverted plates were placed on a stack of paper towel and centrifuged at 800 rpm for 1 min followed by addition of 7 μl/well PBS (added gently with a 45 degree angled liquid dispenser (Klaypsys). The cholesterol assay mixture from the kit was added at 100, 20 or 2.5 μl/well for 96-well, 384-well or 1536-well plates and incubated for 1 hr at 37° C. The resulted fluorescence intensity was measured with excitation of 560 (±10) and emission of 590 (±10) in a fluorescence plate reader (Tecan, Durham, N.C.).

[2] = test system: NPC1-NSCs; test: Amplex-red cholesterol assay in NPC1 neural stem cells; assay type: cell-based, human
Procedure: as §1
(§2) Induced pluripotent stem cells (IPSCs) from the NPC1 skin fibroblasts were generated and differentiated into neural stem cells (NPC1-NSCs).

[3] = test system: NPC1 skin fibroblasts; test: Cholesterol accumulation (Amplex-red, filipin) and enlarged lysosomes (Lysotracker) in NPC1 skin fibroblasts; assay type: cell-based, human
Procedure: as §1

[4] = test system: NPC1, Wolman and other lysosome storage disorder fibroblasts; test: Electron microscopy of lysosomal ultrastructure; settings: Wolman fibroblasts; FIG. 6
Procedure: Electron Microscopy—Fibroblast cells were seeded in 6-well plates at 150,000 cells/well in 5 ml medium and cultured for 1 day in the presence or absence of compounds. Cells were fixed in 2% glutaraldehyde, 0.1 M cacodylate buffer, pH 7.2 for 1 hr at room temperature and then stored at 4° C. until TEM analysis was performed. The cells were post fixed in 1% osmium tetroxide in the same buffer for 1 hour and en bloc stained with 0.5% uranyl acetate in 0.1 M acetate buffer, pH 4.2. The cells were then dehydrated in graded ethanol solutions (35%, 50%, 70%, 95% and 100%) and infiltrated overnight in epoxy resin (Poly/Bed 812, Polysciences). After adding fresh pure resin the cell plates were cured for 72 h in 55° C. After removing the polystyrene plates, suitable areas for thin sectioning were selected, cut out with a jewelry saw and glued onto empty resin stubs. About 70 nm thin sections were cut on an ultramicrotome (Leica EM UC6) and mounted on naked copper grids. The thin sections were double stained (uranyl acetate and lead citrate), examined in a Hitachi H-7650 transmission electron microscope, and images were taken using an AMT CCD camera.
The effects of δ-tocopherol and methyl-β-cyclodextrin on the ultrastructural pathology of lysosomes in lysosome storage disorder cells were investigated by electron microscopy. In brief, following treatment of wild-type and lysosome storage disorder fibroblasts with δ-tocopherol, methyl-β-cyclodextrin, or δ-tocopherol and methyl-β-cyclodextrin, the fibroblasts were fixed and embedded. Thin sections of the embedded cells were then prepared and the ultrastructural pathology was examined by electron microscopy. […] The effects of δ-tocopherol and/or methyl-β-cyclodextrin on the ultrastructural pathology of other lysosome disorder fibroblasts-Farber (FIGS. 7,8 and 10); Tay-Sachs (FIG. 8); Fabry (FIG. 8); Wolman (FIG. 9); NPA (FIG. 9); Batten (FIG. 9); MSIIB (FIG. 9)—were analyzed by electron microscopy.

[5] = test system: mouse model of Niemann Pick Type C (NPC) disease; settings: cited from earlier work
[6] = test system: Wolman fibroblasts; test: Nile Red staining of neutral lipids in Wolman fibroblasts; settings: cultured with compound for 3 days
Procedure: Nile-red Staining—The cells were cultured and treated as described above in 96-well plates. On the experimental day, cells were washed two times with PBS and live-stained with 1 μM Nile-red dye solution (prepared in cell culture medium) at 100 μl/well followed by an incubation at 37° C. for 10 min. After washed twice with PBS, the cells were fixed in 3.2% paraformaldehyde in PBS at 100 μl/well 1 μg/ml Hoechst 33342 (Invitrogen) in PBS and incubation at RT for 30 min. The plate was washed twice with PBS and the images were measured in Incell2000 imaging plate reader with a FTTC filter set (Ex=480±20 nm and Ex=525±36 nm) for the neutral lipids (cholesteryl esters and triglycerides) and a DAPI filter set for Hoechst nuclear staining.
(Nile Red) Cells were cultured in the presence of delta tocopherol, alpha tocopherol and MBCD plus in combination for 3 days and then stained for neutral lipid with Nile red.
Wolman fibroblasts were treated with δ-tocopherol, α-tocopherol, methyl-β-cyclodextrin, or combinations of δ-tocopherol and methyl-β-cyclodextrin or α-tocopherol and methyl-β-cyclodextrin. […] To further characterize the effect of treatment on lipid accumulation, treated fibroblasts were evaluated using a Nile Red assay to measure neutral lipid accumulation. […] The Nile Red staining was visualized by fluorescent microscopy.

[7] = test system: Wolman fibroblasts; test: β-Hexosaminidase (HEXB) release, lysosomal exocytosis; assay type: cell-based, human; settings: Wolman fibroblasts; FIG. 3
Procedure: Measurement of β-Hexosaminidase (HEXB) Release—Fibroblasts were cultured in 24-well plates at 30,000 cells/well in 0.4 ml medium for one day at 37° C. After being washed twice with the assay buffer (DMEM with 2 mM D-mannose 6-phosphate sodium salt), the cells with 0.4 ml/well the assay buffer were incubated at 37° with 0.2 ml/well compound in assay buffer. […] The rest of assay buffer in the 24-well plate was discarded followed by addition of 0.6 ml 1% Triton-X100 in dH2O to lyse the cells. After incubation at 37° C. for 30 min. 6 μl/well cell lysate were added to the 96-well plate with 24 μl assay buffer followed by 90 μl/well 2.25 mM HEXB substrate, 4-Methylumbelliferyl N-acetyl-β-D-glucosaminide (Sigma-Aldrich, #M2133), in a 25 mM citric acid buffer at pH 4.5. The 96-well plate was then measured in the Tecan fluorescence plate reader (Ex=365±20 nm and Em=460±20 nm) after 1 hr incubation at 37° C. and addition of 100 μl/well stop solution (1 M glycine and 1 M NaOH at pH 10.5).
FIG. 3. […] We measured lysosomal exocytosis in delta-T-treated Wolman fibroblasts by determining the activity of beta-hexosaminidase (HEXB), a lysosomal enzyme, in the extracellular medium.
In brief, the level of lysosomal exocytosis was determined by measuring the level of the lysosomal enzyme HEXB secreted into the culture medium following treatment with drug.

[8] = test system: NPC1-NSCs; test: Filipin and Lysotracker staining in NPC1 neural stem cells; assay type: cell-based, human; settings: fluorescence microscopy, FIG. 12B
Procedure: (§3) On the experimental day, cells were live-stained with 100 μl/well 50 nM LysoTracker-Red DND-99 dye (Invitrogen, #L-7528) in medium at 37° C. for 1 hr followed by plate washing twice with PBS. The plate was then fixed in 100 μl/well 3.2% formaldehyde for 1 hr and washed for two times with PBS. […] After washing twice with PBS, the plates were stored at 4° C. until imaging analysis. DAPI filter set and TRITC filter set in the Incell2000 imaging plate reader were used to visualize Hoechst nuclear staining and LysoTracker staining, respectively.
as §2

[9] = test system: fibroblasts derived from patients with lysosomal storage diseases; test: LysoTracker dye staining of enlarged lysosomes; assay type: cell-based, human; settings: for concentration needed for significant effect on reduction of enlarged lysosome size: single compound use, skin fibroblasts of nine lysosomal storage diseases
Procedure: as §3
FIG. 5. […] To test this hypothesis we measured the ability of delta-T to decrease acidic/lysosomal compartment size as determined by LysoTracker staining in fibroblasts derived from patients with six other diseases. Lysosomal storage occurs in these fibroblasts consists of ceroid/lipofuscin in Batten (CLN2), globotriaosylceramide in Fabry, ceramide in Farber, sphingomyelin in NPA, partially degraded heparan sulfate in Sanfilippo type B, and GM2 ganglioside in Tay-Sachs (Table S1).
The effect of various cyclodextrins, δ-tocopherol, and combinations of cyclodextrins and δ-tocopherol on lipid accumulation and lysosome size in wild-type and lysosomal storage disease fibroblasts (Wolman, Tay-Sach, Fabry, Farber, and MPSIIIB fibroblasts) was determined using Lysotracker assay. In brief, cells were treated with various combinations and concentrations of drugs followed by staining with the Lyso tracker dye which is a basophilic fluorescent probe that accumulates in acidic compartments, i.e. lysosomes, within the cell.

[10] = test system: primary NPC fibroblasts; settings: primary NPC fibroblasts / LSD fibroblast; reported; cited from earlier work
[11] = NPC1-NSCs, FIG. 12A, read-out: IC50, Amplex-red cholesterol assay

## COC[C@H]1O[C@@H]2O[C@H]3[C@H](O)[C@@H](OC)[C@@H](O[C@H]4[C@H](O)[C@@H](OC)[C@@H](O[C@H]5[C@H](O)[C@@H](OC)[C@@H](O[C@H]6[C@H](O)[C@@H](OC)[C@@H](O[C@H]7[C@H](O)[C@@H](OC)[C@@H](O[C@H]8[C@H](O)[C@@H](OC)[C@@H](O[C@H]1[C@H](O)[C@H]2OC)O[C@@H]8COC)O[C@@H]7COC)O[C@@H]6COC)O[C@@H]5COC)O[C@@H]4COC)O[C@@H]3COC [MBCD, Heptakis(2,6-di-o-methyl)-beta-cyclodextrin]
[1]; Wolman fibroblasts, FIGS. 1A-1C
  reduction in total cholesterol: significant reduction
[1]; Wolman fibroblasts, FIGS. 1D-1F
  reduction in free cholesterol: significant reduction
[1]; cyclodextrins alone, other lysosomal storage disorders (FIG. 1)
  cholesterol accumulation: most potent
[2]; [11]
  IC50: 10 µM
[3]; NPC1 skin fibroblasts, 160 μM MBCD alone, 50 μM HBPCD or 20 μM MBCD with 10 μM delta-tocopherol, FIG. 11
  reduction of cholesterol accumulation and enlarged lysosomes: almost completely reversed the phenotype
[3]; NPC cells
  ranking order of cholesterol reduction effect: MBCD>alpha-CD>gamma-CD
[3]; reduction of cholesterol accumulation and enlarged lysosome size in NPC1 fibroblasts
  potency of MBCD relative to HBPCD: over 30 fold
[4]
  abnormal lysosomal structures (electron microscopy): significantly reduced
[5]
  cholesterol accumulation and neuronal cell loss: reduced cholesterol accumulation and neuronal cell loss
[6]; FIG. 2
  neutral lipid accumulation (Nile red): reduces accumulation of neutral lipids
[6]; FIG. 2, listed as methyl-β-cyclodextrin
  neutral lipid accumulation (Nile red): significantly reduced
[7]
  lysosomal exocytosis as determined by HEXB secretion: significant increases in lysosomal exocytosis
[8]
  reduction of cholesterol accumulation (filipin staining) and enlarged lysosomes (Lysotracker staining): better than those of delta-tocopherol
[9]; NPC1 and Wolman fibroblasts, 40 μM delta-T or 300 μM MBCD
  LysoTracker staining: significantly reduced LysoTracker staining
[9]; Wolman, Tay-Sach, Fabry, Farber, MPSIIIB fibroblasts, FIGS. 5A-5D
  lipid accumulation and lysosome size (Lysotracker): reduced lipid accumulation and lysosome size
[9]
  concentration needed for significant effect on reduction of enlarged lysosome size: 300 µM

## (2-Hydroxypropyl)-beta-cyclodextrin [HBPCD]
[2]
  potency in NPC1 neuronal cells compared to NPC1 skin fibroblasts: much more potent
[2]; 50 μM HBPCD, 10 μM delta-tocopherol, alone or combined, compared with 5 mM HBPCD
  cholesterol accumulation, combination therapy experiment: did not show the significant cholesterol reduction effect
[2]; [11]
  IC50: 12 µM
[2]; human NPC1 neural stem cells
  ratio of IC50 HBPCD to IC50 delta-tocopherol: 3.3 fold
[2]; human NPC1 neural stem cells, values given under dosage recommendations, read-out: IC50 on reduction of cholesterol accumulation, Amplex-red cholesterol assay
  IC50: 50 µM
[3]; NPC1 skin fibroblasts, single use, FIG. 11A
  concentration needed for reduction of cholesterol accumulation and enlarged lysosomes: millimolars
[10]
  lysosomal exocytosis: promote a calcium-dependent lysosomal exocytosis
[5]
  cholesterol accumulation and neuronal cell loss: reduced cholesterol accumulation and neuronal cell loss
[8]
  reduction of cholesterol accumulation (filipin staining) and enlarged lysosomes (Lysotracker staining): better than those of delta-tocopherol
[9]
  concentration needed for significant effect on reduction of enlarged lysosome size: 8000 µM
